According to patent US20240108601A1, “TREATMENT OF MENTAL DISORDERS” (GH Research Ireland Limited, priority 2022, published 2024):
Several values for one entry are separate records, joined by “and”; a condition that tells them apart may be missing. Identical values can stand only once. Like-named read-outs stand apart in the source and are kept apart here.

Tests used:
[1] = tested on: Escherichia coli WP2 uvrA pKM101; assay: Bacterial reverse mutation test; format: cell-based; conditions: up to 5000 μg/plate; with and without S-9
Experimental: (§1) These conditions included treatments at concentrations up to 5000 μg/plate (the maximum recommended concentration according to current regulatory guidelines), in the absence and in the presence of a rat liver metabolic activation system (S-9).

[2] = tested on: Salmonella typhimurium TA98, TA100, TA1535 and TA1537; assay: Bacterial reverse mutation test; format: cell-based; conditions: up to 5000 μg/plate; with and without S-9
Experimental: as §1

[3] = LC-MS/MS of 5-MeO-DMT, bufotenine and 5-MIAA in urine, serum and breastmilk of lactating PPD patient; infant exposure estimates; conditions: for Breastmilk concentration / Serum concentration / Urine concentration: second patient
Excerpt: When determining the potential impact of maternal drug administration on a breastfed infant, it is standard practice to calculate the Relative Infant Dose (RID) (Bennett, P. N., and L. J. Notarianni. “Risk from drugs in breast milk: an analysis by relative dose.” Br J Clin Pharmacol 42.5 (1996): P673-4). The RID is the dosage (in μg/kg/day) the infant is exposed to by the intake of breast milk, divided by the dosage (in μg/kg/day) the mother receives.
Using estimates for daily intake of breast milk and the number of feeds as well as the measured breast milk concentrations the exposure of the infant can be determined.
For example, a published estimate for daily intake of breast milk as a function of infant weight is 150 ml/kg/day. To model the exposure, it is assumed that an infant of 5 kg is fed three times over 24 hours, receiving 250 ml breast milk each time.
The second patient was lactating, and, per the clinical trial protocol, breastmilk samples were collected pre-dosing and at multiple timepoints after administration of the last dose. […] Similar analyses were carried out on patient serum and urine samples.

[4] = Pharmacokinetics of 5-MeO-DMT and bufotenine after single inhaled dose; format: in vivo, human; conditions: for Cmax: human, plasma, inhaled or intranasal, inhalation, n=8, read-out: Median Cmax
Experimental: Blood samples were obtained at 1; 2; 4; 7; 10; 15; 20; 30; 45 min and 1; 1.5; 2; 3; 4 hours after administration.
PK parameters were generated by algebraic analysis of the concentration versus time plots for each individual. The analysis was carried out using the software Phoenix WinNonlin 6.3.

[5] = tested on: patients with postpartum depression (PPD); assay: Clinical trial of inhaled 5-MeO-DMT in postpartum depression; format: in vivo, human; conditions: for BIMF domain Adjustment score / BIMF domain Infant Care score: max 12; for BIMF domain Infant Care score: Day 0 12; for BIMF domain Management score: max 36; for BIMF domain Psychological Well-being score: max 60; for BIMF TOTAL score: possible total 120; for Time to clinical remission after administration: IDR 6 mg then 12 mg
Excerpt: The patient completed all planned visit days.

[6] = In vitro binding of 5-MeO-DMT to plasma proteins, high throughput dialysis; format: in vitro ADME
Experimental: Following evaluation of the equilibration data, plasma protein binding was investigated at nominal concentrations of 0.1, 1 and 10 μM using a 4-hour dialysis time. […]

[7] = female, human, breast milk, inhaled
[8] = second patient, Day 7 (visit on day 5)

## COc1ccc2[nH]cc(CCN(C)C)c2c1 [5-MeO-DMT]
[1]
  Mutation induction: did not induce mutation
[2]
  Mutation induction: did not induce mutation
[3]; 5 kg infant, three feeds of 250 ml
  Daily Infant Dosage (DID) per kg: 0.0001385 mg/kg/day
[3]; [7]
  concentration at 1 h: 2.17 ng/mL
  concentration at 2.5 h: 0.561 ng/mL
  concentration at 8.5 h: 0.0421 ng/mL
[3]; female, human, serum, inhaled
  concentration at 1 h: 0.133 ng/mL
[3]; 1.0 hrs after last dose
  Breastmilk concentration: 2167 pg/mL
[3]; 2.5 hrs after last dose
  Serum concentration: BLQ (Below limit of quantification. The lower limit of quantification is 25 pg/ml for both 5-MeO-DMT and 5-MIAA in both serum and breastmilk; it is 25 pg/ml in urine for 5-MeO-DMT and 250 pg/ml for 5-MIAA in urine.)
[3]; 8.5 hrs after last dose
  Urine concentration: BLQ (Below limit of quantification. The lower limit of quantification is 25 pg/ml for both 5-MeO-DMT and 5-MIAA in both serum and breastmilk; it is 25 pg/ml in urine for 5-MeO-DMT and 250 pg/ml for 5-MIAA in urine.)
[3]; 24.0 hrs after last dose
  Breastmilk concentration: did not detect and BLG
  Serum concentration: BLQ (Below limit of quantification. The lower limit of quantification is 25 pg/ml for both 5-MeO-DMT and 5-MIAA in both serum and breastmilk; it is 25 pg/ml in urine for 5-MeO-DMT and 250 pg/ml for 5-MIAA in urine.)
  Urine concentration: BLQ (Below limit of quantification. The lower limit of quantification is 25 pg/ml for both 5-MeO-DMT and 5-MIAA in both serum and breastmilk; it is 25 pg/ml in urine for 5-MeO-DMT and 250 pg/ml for 5-MIAA in urine.)
[3]; 120.0 hrs after last dose
  Breastmilk concentration: BLQ (Below limit of quantification. The lower limit of quantification is 25 pg/ml for both 5-MeO-DMT and 5-MIAA in both serum and breastmilk; it is 25 pg/ml in urine for 5-MeO-DMT and 250 pg/ml for 5-MIAA in urine.)
  Serum concentration: BLQ (Below limit of quantification. The lower limit of quantification is 25 pg/ml for both 5-MeO-DMT and 5-MIAA in both serum and breastmilk; it is 25 pg/ml in urine for 5-MeO-DMT and 250 pg/ml for 5-MIAA in urine.)
  Urine concentration: BLQ (Below limit of quantification. The lower limit of quantification is 25 pg/ml for both 5-MeO-DMT and 5-MIAA in both serum and breastmilk; it is 25 pg/ml in urine for 5-MeO-DMT and 250 pg/ml for 5-MIAA in urine.)
[3]; −24.0 hrs (pre-dosing)
  Breastmilk concentration: BLQ (Below limit of quantification. The lower limit of quantification is 25 pg/ml for both 5-MeO-DMT and 5-MIAA in both serum and breastmilk; it is 25 pg/ml in urine for 5-MeO-DMT and 250 pg/ml for 5-MIAA in urine.)
  Serum concentration: BLQ (Below limit of quantification. The lower limit of quantification is 25 pg/ml for both 5-MeO-DMT and 5-MIAA in both serum and breastmilk; it is 25 pg/ml in urine for 5-MeO-DMT and 250 pg/ml for 5-MIAA in urine.)
  Urine concentration: BLQ (Below limit of quantification. The lower limit of quantification is 25 pg/ml for both 5-MeO-DMT and 5-MIAA in both serum and breastmilk; it is 25 pg/ml in urine for 5-MeO-DMT and 250 pg/ml for 5-MIAA in urine.)
[4]; 3 hours after inhalation, 6, 12, 18 mg
  Detectability in plasma: no longer detectable
[4]; 6 mg group
  Cmax: 11.8 ng/mL
[4]; 12 mg group
  Cmax: 22.9 ng/mL
[4]; 18 mg group
  Cmax: 38.5 ng/mL
[4]; repeated administration within 1 to 4 hours
  Accumulation upon repeated administration: No accumulation
[5]; first patient
  BIMF TOTAL Δ (Day 7): 13
  BIMF domain Adjustment Δ (Day 7): 1
  BIMF domain Infant Care Δ (Day 7): 0
  BIMF domain Management Δ (Day 7): 5
  BIMF domain Mother-Child Interaction Δ (Day 7): 2
  BIMF domain Psychological Well-being Δ (Day 7): 9
  BIMF domain Self-Care Δ (Day 7): 4
  BIMF domain Social Support Δ (Day 7): 1
  Time to clinical remission after administration: ≤ 2 h
[5]; first patient, 12 mg
  PES score: 85.7
[5]; first patient, 2 hr
  Total MADRS improvement: 24
[5]; first patient, 2 hr, baseline 29
  Total MADRS score: 5
[5]; first patient, Day 1
  BPRS item score: 1
  MADRS item score: 0
  Total MADRS improvement: 29
[5]; first patient, Day 1, baseline 29
  Total MADRS score: 0
[5]; first patient, Day 7
  BIMF domain Adjustment % improvement: 20.00%
  BIMF domain Infant Care % improvement: 0.00%
  BIMF domain Management % improvement: 18% and 17.86%
  BIMF domain Mother-Child Interaction % improvement: 13.33%
  BIMF domain Psychological Well-being % improvement: 20.45%
  BIMF domain Self-Care % improvement: 44% and 44.44%
  BIMF domain Social Support % improvement: 5.88%
  BIMF total score improvement: 14%
  BPRS item score: 1
  Total MADRS improvement: 28
  BIMF domain Infant Care score: 12
[5]; first patient, Day 7, Day 0 5
  BIMF domain Adjustment score: 6
[5]; first patient, Day 7, Day 0 9, max 18
  BIMF domain Self-Care score: 13
[5]; first patient, Day 7, Day 0 15, max 18
  BIMF domain Mother-Child Interaction score: 17
[5]; first patient, Day 7, Day 0 17, max 18
  BIMF domain Social Support score: 18
[5]; first patient, Day 7, Day 0 28
  BIMF domain Management score: 33
[5]; first patient, Day 7, Day 0 44
  BIMF domain Psychological Well-being score: 53
[5]; first patient, Day 7, Day 0 92
  BIMF TOTAL score: 105
[5]; first patient, Day 7, baseline 29
  Total MADRS score: 1
[5]; first patient, Discharge
  BPRS item score: 1
[5]; first patient, cramping left abdominal pain and headache, Day 0
  Reported adverse events: mild, short-lasting and resolved spontaneously
[5]; first patient, nominal dose 6 mg
  PES score: 17.3
[5]; second patient
  BIMF TOTAL Δ (Day 7): 45
  BIMF domain Adjustment Δ (Day 7): 9
  BIMF domain Infant Care Δ (Day 7): 0
  BIMF domain Management Δ (Day 7): 13
  BIMF domain Mother-Child Interaction Δ (Day 7): 7
  BIMF domain Psychological Well-being Δ (Day 7): 27
  BIMF domain Self Care Δ (Day 7): 10
  BIMF domain Social Support Δ (Day 7): 3
  Time to clinical remission after administration: ≤ 2 h
[5]; second patient, 12 mg
  PES score: 94.7
[5]; second patient, 2 hr, baseline 41
  Total MADRS score: 5
[5]; second patient, 2 hrs
  Total MADRS improvement: 36
[5]; second patient, Day 1
  BPRS item score: 1
  MADRS item score: 0
  Total MADRS improvement: 41
[5]; second patient, Day 1, baseline 41
  Total MADRS score: 0
[5]; second patient, Day 7
  BIMF domain Adjustment % improvement: 450%
  BIMF domain Infant Care % improvement: 0%
  BIMF domain Management % improvement: 76%
  BIMF domain Mother-Child Interaction % improvement: 70%
  BIMF domain Psychological Well-being % improvement: 113%
  BIMF domain Self Care % improvement: 333%
  BIMF item score: 6 and 5 and 4
  BIMF total score improvement: over 40%
  BIMF domain Infant Care score: 12
[5]; [8]
  BPRS item score: 1
  MADRS item score: 0
  Total MADRS improvement: 41
[5]; second patient, Day 7 (visit on day 5), baseline 41
  Total MADRS score: 0
[5]; second patient, Day 7, Day 0 2
  BIMF domain Adjustment score: 11
[5]; second patient, Day 7, Day 0 3, max 18
  BIMF domain Self Care score: 13
[5]; second patient, Day 7, Day 0 10, max 18
  BIMF domain Mother-Child Interaction score: 17
[5]; second patient, Day 7, Day 0 11, max 18
  BIMF domain Social Support score: 14
[5]; second patient, Day 7, Day 0 17
  BIMF domain Management score: 30
[5]; second patient, Day 7, Day 0 24
  BIMF domain Psychological Well-being score: 51
[5]; second patient, Day 7, Day 0 59 (table)
  BIMF TOTAL score: 104
[5]; second patient, Discharge
  BPRS item score: 1
[5]; second patient, nominal dose 6 mg
  PES score: 1
[5]; second patient, vomiting Day 0, headache Day 5
  Reported adverse events: mild, short-lasting and resolved spontaneously
[6]; human plasma
  fraction unbound at 4 h: 0.77 to 0.87
[6]; human, 0.1 μM, 4-hour dialysis, read-out: Free Fraction in human plasma
  fraction unbound at 4 h, 0.1 μM: 0.787
[6]; human, 1 μM, 4-hour dialysis, read-out: Free Fraction in human plasma
  fraction unbound at 4 h, 1 μM: 0.773
[6]; human, 10 μM, 4-hour dialysis, read-out: Free Fraction in human plasma
  fraction unbound at 4 h, 10 μM: 0.87
